We go through one compound from US6469028B1, “Synthesis and use of retinoid compounds having negative hormone and/or anatgonist activities” (Allergan, Inc., priority 1995, dated 2002).

Holding throughout (experiment): Holoreceptor transactivation assay
Holding throughout (format): cell-based

One experiment has as its system RXRβ. The conditions noted are these: relative to all trans retinoic acid. From the text: (§1) A holoreceptor transactivation assay and a ligand binding assay which measure the antagonist/agonist like activity of the compounds of the invention, or their ability to bind to the several retinoid receptor subtypes, respectively, are described in published PCT Application No. WO93/11755 (particularly on pages 30-33 and 37-41) published on Jun. 24, 1993, the specification of which is also incorporated herein by reference. A description of the holoreceptor transactivation assay is also provided below.
(§2) CV1 cells (5,000 cells/well) were transfected with an RAR reporter plasmid MTV-TREp-LUC (50 ng) along with one of the RAR expression vectors (10 ng) in an automated 96-well format by the calcium phosphate procedure of Heyman et al. Cell 68: 397-406. For RXR-α and RXR-γ transactivation assays, an RXR-responsive reporter plasmid CRBPII-tk-LUC (50 ng) along with the appropriate RXR expression vectors (10 ng) was used substantially as described by Heyman et al. above, and Allegretto et al. J. Biol. Chem. 268: 26625-26633. For RXR-β transactivation assays, an RXR-responsive reporter plasmid CPRE-tk-LUC ([…]) along with RXR-β expression vector ([…]) was used as described in above. These reporters contain DRI elements from human CRBPII and certain DRI elements from promotor, respectively (see Mangelsdorf et al. The Retinoids: Biology Chemistry and Medicine, pp. 319-349, Raven Press Ltd., New York and Heyman et al., cited above). A β-galactosidase (50 ng) expression vector was used as an internal control in the transfections to normalize for variations in transfection efficiency. The cells were transfected in triplicate for 6 hours, followed by incubation with retinoids for 36 hours, and the extracts were assayed for luciferase and […] activities. The detailed experimental procedure for holoreceptor transactivations has been described in Heyman et al. above, and Allegretto et al. cited above. The results obtained in this assay are expressed in EC50 numbers, as they are also in the chimeric receptor transactivation assay. The Heyman et al. Cell 68: 397-406, Allegretto et al. J. Biol. Chem. 268: 26625-26633, and Mangelsdorf et al. The Retinoids: Biology, Chemistry, and Medicine, pp. 319-349, Raven Press Ltd., New York, are expressly incorporated herein by reference. The results of ligand binding assay are expressed in Kd numbers. (See Cheng et al. Biochemical Pharmacology 22: 3099-3108, expressly incorporated herein by reference.)

The target in a further experiment is T1, RXRα (Homo sapiens, UniProt P19793).
T1 construct: expressed in transfected cells; host or cells: CV1 cells
T1 sequence (P19793 1-462): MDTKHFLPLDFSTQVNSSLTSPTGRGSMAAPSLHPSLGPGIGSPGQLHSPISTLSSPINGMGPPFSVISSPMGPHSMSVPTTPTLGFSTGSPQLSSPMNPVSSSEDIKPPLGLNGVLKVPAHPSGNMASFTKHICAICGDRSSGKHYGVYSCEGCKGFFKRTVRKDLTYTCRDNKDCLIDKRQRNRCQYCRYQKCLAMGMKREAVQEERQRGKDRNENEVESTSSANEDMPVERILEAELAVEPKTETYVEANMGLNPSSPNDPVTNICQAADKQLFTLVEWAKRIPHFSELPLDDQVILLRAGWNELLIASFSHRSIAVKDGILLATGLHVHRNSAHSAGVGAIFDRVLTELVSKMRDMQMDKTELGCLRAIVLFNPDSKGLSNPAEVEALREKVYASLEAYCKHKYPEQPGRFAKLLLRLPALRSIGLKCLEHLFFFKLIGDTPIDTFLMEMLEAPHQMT
The conditions noted are these: relative to all trans retinoic acid; read-out: Transactivation Assay Efficacy (% of RA activity) RXRα.
Source text: as §1, §2

A further experiment concerns the target T2, RXRγ (Mus musculus, UniProt P28705).
T2 construct: expressed in transfected cells; host or cells: CV1 cells
T2 sequence (P28705 1-463): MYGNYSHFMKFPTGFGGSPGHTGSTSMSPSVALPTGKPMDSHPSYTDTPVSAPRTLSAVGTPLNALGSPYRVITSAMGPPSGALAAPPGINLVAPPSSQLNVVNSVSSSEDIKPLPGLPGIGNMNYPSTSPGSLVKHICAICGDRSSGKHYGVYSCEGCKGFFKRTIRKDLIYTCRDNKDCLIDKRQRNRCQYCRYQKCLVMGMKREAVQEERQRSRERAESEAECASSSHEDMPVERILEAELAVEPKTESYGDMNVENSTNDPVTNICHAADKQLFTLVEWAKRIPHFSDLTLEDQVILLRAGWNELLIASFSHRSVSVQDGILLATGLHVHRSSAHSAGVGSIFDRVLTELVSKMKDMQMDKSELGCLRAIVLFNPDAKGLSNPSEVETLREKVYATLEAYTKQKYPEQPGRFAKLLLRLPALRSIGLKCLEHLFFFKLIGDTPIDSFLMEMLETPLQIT
The conditions noted are these: relative to all trans retinoic acid; read-out: Transactivation Assay Efficacy (% of RA activity) RXRγ.
Source text: as §1, §2

A further experiment deals with T3, RARβ (Homo sapiens, UniProt P10826).
T3 sequence (P10826 1-448 isoform P10826-2): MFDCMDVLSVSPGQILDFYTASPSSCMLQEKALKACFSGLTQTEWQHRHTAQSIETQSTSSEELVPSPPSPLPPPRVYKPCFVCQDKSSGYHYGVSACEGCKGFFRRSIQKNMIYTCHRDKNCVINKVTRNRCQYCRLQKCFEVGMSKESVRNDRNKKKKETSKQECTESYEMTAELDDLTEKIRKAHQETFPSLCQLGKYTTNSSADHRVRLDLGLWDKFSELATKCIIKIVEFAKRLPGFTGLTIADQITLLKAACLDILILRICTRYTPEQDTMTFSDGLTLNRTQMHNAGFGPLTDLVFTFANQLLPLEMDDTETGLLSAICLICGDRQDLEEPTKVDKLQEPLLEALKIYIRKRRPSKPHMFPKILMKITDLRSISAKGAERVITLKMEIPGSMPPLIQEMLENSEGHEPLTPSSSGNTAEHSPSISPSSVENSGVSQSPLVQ
On the set-up: expressed in transfected cells; host or cells: CV1 cells. The conditions noted are these: relative to all trans retinoic acid; read-out: Transactivation Assay Efficacy (% of RA activity) RARβ.
Source text: as §1, §2
A compound should not cause significant activation of a reporter gene through a given receptor subtype (RAR-α, RAR-β or RAR-γ) in the holoreceptor transactivation assay, in order to qualify as an RAR antagonist with utility in the present invention.

Each structure is given as a SMILES string.

Consider `CCc1ccc(C2=CCC(C)(C)c3ccc(C#Cc4ccc(C(=O)O)cc4)cc32)cc1` [Compound 21, 4-[(5,6-Dihydro-5,5-dimethyl-8-(4-ethylphenyl)-2-naphthalenyl)ethynyl]benzoic acid], for which the “Transactivation Assay Efficacy (% of RA activity) RXRβ” value in the experiment with RXRβ was 0.00 % of RA activity. The Emax worked out at 3% on RXRα, 3% on RXRγ and 2% on RARβ.
